Legend:
[1] = test system: breast cancer cells; assay: Cell growth assay (crystal violet); format: cell-based, human; conditions: for inhibition at 50 µM: Homo sapiens, 72 hrs
Source text: Cells wereplated on 96-well (30,000 cells/well) or 24-well plates (50,000 cells/well). […] Cells were stained with crystal violet (0.5% in Methanol:Acetic Acid=3:1) and washed with PBS. Crystal violet was solubilized in DMSO and measured in a microplate reader at 592 nm.

[2] = test system: MCF7-tet-off cells; assay: 96 Well BME Cell Invasion Assay; format: cell-based, human; conditions: MCF7-tet-off (+Doxy) and (-Doxy), 50 μM, 24 hrs
Method: MCF7-tet-off cells were grown in the media with (+Doxy) or without doxycycline (−Dox) for 72 hours. Cells were then treated with compound 1 (50 μM) for 24 hrs, and trypsinized and suspended in serum-free media. Cells were re-plated in the top chamber precoated with 0.1× BME (Cultrex), and growth medium supplemented with 10% FBS was used as a chemoattractant in the bottom chamber. compound 1 was added to both chambers and incubated for 16 hrs. Cellular invasion was analyzed according to the 96 Well BME Cell Invasion Assay protocol (Cultrex).

[3] = test system: MCF7-tet-off or MDA-231 cells; assay: Calcein-AM viability assay; format: cell-based, human; conditions: over 24 hrs
Method: In FIGS. 9A-9C compound 1 was added at the initial day of cell plating. Tumorspheres of MCF7-tet-off (−Doxy) cells were photographed for 18 days at ×40 and ×100 magnifications (FIG. 9A), and counted at the final day at ×40 magnification (FIG. 9C). Tumorspheres of MDA-231, MDA-468 and MCF7 cells at day 7 are shown (FIG. 9B). Spheres of MDA-231 and MCF7 cells were counted at day 18 with ×20 magnification. Spheres of vehicle-treated MDA-468 cells were counted at day 7 with ×20 magnification as they became fragile and disrupted 7 days after incubation. In FIG. 9C sphere number (No.) was counted from 9 fields per well. Data presented as mean±SD. Experiments were done in triplicate and repeated three times. *, P<0.05 compared to +Doxy; ^#, P<0.05 compared to −Doxy with vehicle treatment. Box, RUNX2 induction upon Doxy removal from MCF7-tet-off cells (−D). In FIG. 9D to ensure robust sphere formation, compound 1 was added 4 days after cell plating (D4+), and cells were further incubated for 5 days (D5) or for 7 days (D7). In FIG. 9E the cellular invasive ability of MCF7-tet-off cells (left) was evaluated by the 96 Well BME Cell Invasion Assay and xCELLigence systems in vitro, respectively. In parallel, similar amount of cells were plated in separate plates and treated with compound 1 for 24 hrs, and Calcein-AM assay was performed (right). […]

[4] = test system: RUNX2 transcriptional activity; assay: Luciferase-promoter reporter assay of RUNX2 target genes; format: cell-based, human
Method: Cells were plated in 96-well plates (30,000 cells/well) and incubated overnight. Cells were co-transfected with indicated luciferase-reporter plasmids (25 ng/well) and pSV-Renilla-Luc (Promega) (15 ng/well) for 6 hrs and compound 1 ([…]) was further treated for 18-48 hrs. COX-2 (P2-274)-Luc (−170bp˜+104bp) and control plasmids (PXP2-Luc) were kindly provided byDr. Miguel A. Iñiguez (Universidad Autónoma de Madrid, Spain), and pNF-kb-Luc was from Dr. Hancai Dan (University of Maryland). Luciferase assay was performed using the Dual-Glo Luciferase Assay Systems as per manufacturer's recommendation (Promega).

[5] = test system: mammary tumors; assay: MMTV-PyMT transgenic mouse model; format: in vivo, MMTV-PyMT mice
Method: For the MMTV polyoma middle T antigen (PyMT) mouse model, female mice were purchased from Jackson Laboratory. As mice developed first palpable mammary tumors after 5 weeks of age, mice were randomly assigned to 4 treatment groups at 6 weeks of age and received i.p. injections of compound 1 (1, 5 and 20 mg/kg/group) or equivalent volumes of vehicle (10% DMSO/90% PBS) (200 μl) twice a week. Palpable tumors were monitored every 1 to 2 days until 12 weeks of age to determine tumor incidence (number of tumors per mouse) and onset (the age of palpable tumors). Tumor weight was quantified at the final day after mice were euthanized and tumors were excised. Tumor volume [(length×width^2)/2] was measured by caliper.

[6] = test system: MCF7-tet-off-Luc (-Doxy) and 231-Luc cells; assay: In vivo lung metastasis assay (BLI); set-up: species or system NSG mice; conditions: 10 mg/kg
Method: For in vivo lung metastasis assay, MCF7-tet-off-Luc cells were grown for 3 days in the absence of Doxycyclin (−Doxy) and injected into the tail vein of the 8 week-old female NSG mice (1×10^6 cells/200 μl of PBS). After inoculation, the mice were randomly assigned to vehicle control and treatment groups. Vehicle (10% DMSO/90% PBS) and compound 1 (10 mg/kg) were injected i.p. 2 hrs after inoculation. The retention of the cells in the lung was monitored by noninvasive bioluminescence imaging for 24 hrs. For luciferase detection, 150 mg/mL D-luciferin (Caliper Life Sciences) in PBS was injected i.p. before imaging. Photometric measurement of metastasis was done by living Image software (Xenogen). In separate groups of mice, 231-Luc cells (1×10^6/200 μl of PBS) were injected, and the metastasis burden in the lung was quantified for 3 weeks.

O=C(O)C1C2C=CC(C2)C1C(=O)Nc1ccc(Cl)c(Cl)c1 (centres unmarked) [compound 1, 3-(N-(3,4-dichlorophenyl)carbamoyl)-5-norbornene-2-carboxylic acid]
inhibition in cell viability ([1]; 0˜100 μM, over 24 hrs): no significant inhibition
cell growth inhibition ([1]; 0˜100 μM, over 72 hrs): dose- and time-dependent cell growth inhibition
inhibition at 50 µM ([1]; MDA-MB-468 cells): > 50%
inhibition at 50 µM ([1]; majority of TNBC and luminal type BC cells): < 50%
cell proliferation relative to vehicle controls ([1]; ectopic RUNX2-expressing MCF7 and T47D cells, 7 days): dramatic decrease
invasiveness [2]: almost abrogated
viability [3]: little effect
MMP13 promoter activity ([4]; BT474 cells that do not express RUNX2, 48 hrs): did not attenuate
repression of MMP13 promoter-Luc activity ([4]; MCF7-RUNX2 cells): about 50%
MMP13 promoter activity ([4]; MDA-231 cells that express RUNX2, 48 hrs): decreased significantly
promoter-Luc activities of control cells ([4]; T47D-Empty and MCF7-Empty): little effect
promoter-luciferase activities of MMP13, VEGF and OC ([4]; T47D-RUNX2 and MCF7-RUNX2 cells, 48 hrs): dramatic decrease
RUNX2-repressed p21 promoter activity ([4]; T47D-RUNX2 cells): reactivated
p6xOSE2-Luc activity ([4]; T47D-RUNX2 cells): slightly but significantly reduced
MMP13 promoter-Luc activity ([4]; T47D-RUNX2 cells, 2 μM): almost completely blocked
tumor incidence per mouse at the final day (mean±SEM) ([5]; 1 mg/Kg): 4.14±0.88
tumor onset, Frequency of mode ([5]; 1 mg/kg): 8
tumor onset, Mode ([5]; 1 mg/kg): 43
tumor onset, range ([5]; 1 mg/kg): 15˜45
mice with less than 3 tumors ([5]; 5 mg/Kg): 40%
tumor incidence per mouse at the final day (mean±SEM) ([5]; 5 mg/Kg): 3.05±2.57
tumor onset, Frequency of mode ([5]; 5 mg/kg): 11
tumor onset, Mode ([5]; 5 mg/kg): 43
tumor onset, range ([5]; 5 mg/kg): 1˜45
fraction of mice with over 6 tumors ([5]; 20 mg/Kg): no mice
mice with less than 3 tumors ([5]; 20 mg/Kg): 55%
tumor incidence per mouse at the final day (mean±SEM) ([5]; 20 mg/Kg): 2.57±0.72
tumor onset, Frequency of mode ([5]; 20 mg/kg): 9
tumor onset, Mode ([5]; 20 mg/kg): 40
tumor onset, range ([5]; 20 mg/kg): 22˜45
tumor weight ([5]; 1, 5, 20 mg/Kg): reduction
staining of Ki67 in tumor sections versus control mice ([5]; IHC): much weaker
onset of the tumors ([5]; i.p., up to 20 mg/kg, 45 days): significantly delayed
body weight and general health ([5]; up to 20 mg/kg, MMTV-PyMT mice): did not significantly decrease body weight
body weight and general health ([6]; NSG mice): did not significantly decrease body weight
colonization and outgrowth in the lung versus vehicle ([6]; 231-Luc cells, 3 weeks): significantly lower
metastatic homing to the mouse lungs ([6]; MCF7-tet-off-Luc (-Doxy) cells): no influence
lung retention of the cells ([6]; MCF7-tet-off-Luc (-Doxy) cells, 24 hrs): significantly reduced

From patent US11634381B2, “RUNX2 transcription factor inhibitors and uses thereof” (University of Maryland, Baltimore, priority 2015, dated 2023)
